Assay results from patent KR20060104555A, “사이클로펜타디온 유도체를 포함하는 항암 조성물” (한국생명공학연구원, priority 2005, dated 2006).
Values after ≈ are worked out from the molar mass of the structure shown.

Key:
Solubility = type: physicochemical
[1] = target: T1, farnesyl transferase (파네실 전달효소) (Rattus norvegicus, UniProt Q02293+Q04631); assay: Farnesyl transferase inhibition, SPA with 3H-FPP and biotin-lamin B peptide; type: biochemical, rat (Sprague Dawley); conditions: 50% inhibitory concentration; room temperature, 30 min
T1 construct: Q 세파로즈 고속 칼럼(Q Sepharose Fast Flow column)을 이용하여 부분 정제한 것을 사용하였다; from tissue; host or cells: rat (Sprague Dawley, male) brain homogenate, partially purified on Q Sepharose Fast Flow

[2] = tested on: colorectal cancer cells SW620 (대장암세포 SW620); assay: WST-1 growth inhibition, SW620; type: cell-based; conditions: Homo sapiens, SW-620, SW620, 48 h
[3] = tested on: colorectal cancer cells HCA-7 (대장암세포 HCA-7); assay: WST-1 growth inhibition, HCA-7; type: cell-based; conditions: Homo sapiens, HCA-7, 48 h
[4] = tested on: lung cancer cells NCI-H23 (폐암세포 NCI-H23); assay: WST-1 growth inhibition, NCI-H23; type: cell-based; conditions: Homo sapiens, NCI-H23, 48 h
HEK293 (신장암세포 HEK293) = assay: WST-1 growth inhibition, HEK293; type: cell-based; conditions: Homo sapiens, HEK293, 48 h
[5] = tested on: lung cancer cells A549 (폐암세포 A549); assay: WST-1 growth inhibition, A549; type: cell-based; conditions: Homo sapiens, A549, 48 h
[6] = tested on: colorectal cancer cells HCT116 (대장암세포 HCT116); assay: WST-1 growth inhibition, HCT116; type: cell-based; conditions: Homo sapiens, HCT-116, HCT116, 48 h
[7] = tested on: breast cancer cells MDA-MB-231 (유방암세포 MDA-MB-231); assay: WST-1 growth inhibition, MDA-MB-231; type: cell-based; conditions: Homo sapiens, MDA-MB-231, 48 h
[8] = tested on: prostate cancer cells DU145 (전립선암세포 DU145); assay: WST-1 growth inhibition, DU145; type: cell-based; conditions: Homo sapiens, DU-145, DU145, 48 h

| solubility (Solubility; Alcohols, DMSO) | solubility (Solubility; Hexane, H2O) | IC50 [1] [µM] | GI50 [2] [µg/mL] | GI50 [3] [µg/mL] | GI50 [4] [µg/mL] | GI50 [5] [µg/mL] | GI50 [6] [µg/mL] | GI50 [7] [µg/mL] | GI50 [8] [µg/mL] | Compound | GI50 (HEK293 (신장암세포 HEK293)) [µg/mL] |
| --- | --- | --- | --- | --- | --- | --- | --- | --- | --- | --- | --- |
| 가용성 | 불용성 | 125 | – | – | – | – | – | – | – | COC1=CC(=O)C(=C(O)/C=C/c2ccccc2)C1=O [Lucidone, lucidone] | – |
| 가용성 | 불용성 | 33.3 | – | – | – | – | – | – | – | COC1=C(OC)C(=O)C(=C(O)/C=C/c2ccccc2)C1=O [Linderone, linderone] | – |
| 가용성 | 불용성 | 43.3 | 3.5 (≈ 11.7 µM) | 0.52 (≈ 1.73 µM) | 1.1 (≈ 3.66 µM) | 3.2 (≈ 10.7 µM) | 0.45 (≈ 1.5 µM) | 3.8 (≈ 12.7 µM) | – | COC(/C=C/c1ccccc1)=C1C(=O)C(OC)=C(OC)C1=O [Methyllinderone, methyllinderone] | 3 (≈ 9.99 µM) |
| 가용성 | 불용성 | 40.7 | 2 (≈ 7.4 µM) | 0.39 (≈ 1.44 µM) | 1 (≈ 3.7 µM) | 15 (≈ 55.5 µM) | 0.26 (≈ 0.962 µM) | 3.5 (≈ 12.9 µM) | 1.8 (≈ 6.66 µM) | COC1=CC(=O)C(=C(/C=C/c2ccccc2)OC)C1=O [Methyllucidone, methyllucidone] | 4.8 (≈ 17.8 µM) |
